Measurements taken from patent US20200245620A1 (priority 2018, published 2020).
In brackets after ≈: the same amount, converted by molar mass. Several values for one entry are separate records, joined by “and”; a condition that tells them apart may be missing. Identical values can stand only once. Like-named read-outs stand apart in the source and are kept apart here.

Experiments:
Fusarium graminearum = assay: microbe, parasite or virus in culture; assay type: cell-based; settings: for EC50: F.g sensitive strains
Fusarium asiaticum = assay: microbe, parasite or virus in culture; assay type: cell-based
[1] = tested on: Carbendazim-resistant fusarium asiaticum; assay: microbe, parasite or virus in culture; assay type: cell-based; settings: for inhibition at 1 µg/mL / inhibition at 10 µg/mL / inhibition at 100 µg/mL / inhibition at 1000 µg/mL / inhibition at 10000 µg/mL: Fusarium asiaticum, read-out: DON Biosynthesis Inhibition Rate
wheat scab = assay type: in vivo
wheat scab fungi = assay type: in vivo
[2] = tested on: barley scab (fusarium head blight); assay type: in vivo
barley leaf blight = assay: Field efficacy on barley diseases; assay type: in vivo
Procedure: (§1) The field prevention and control efficacy of the fungicidal composition preparations of embodiments 1-8 on barley diseases was experimented, wherein different doses of single jinggangmycin agent and single ipconazole agent were designed for treatment. In 2014, application was carried out for the first time at the initial stage of barley blooming, application was carried out for the second time after five days, water consumption was 50 kg/Mu, the area of each plot was 50 square meters, each treatment was repeated for three times, and the fungicidal composition was not applied on the blank control. A conventional agent, polyketone wettable powder, was adopted as a control agent. According to a corresponding method specified by the industrial standard of Guidelines for the Field Efficacy Trials of Fungicides issued by the Ministry of Agriculture, the occurrences of barley scab, powdery mildew, rust and leaf blight were investigated at the stage of milky ripeness, disease indexes and prevention and control effects were calculated, and the result is shown in table 8. One hundred and fifty barley ears were sampled randomly every five treated points at the stage of wax ripeness, taken in for threshing and assayed according to the method of application embodiment 1, and toxin contents of the kernels were calculated.

barley powdery mildew = assay: Field efficacy on barley diseases; assay type: in vivo
Procedure: as §1

barley rust = settings: in vivo
[3] = tested on: barley scab (fusarium head blight); assay type: in vivo; remark: listed apart in the source
Tri5 gene = assay type: cell-based, fusarium asiaticum
leaf blight of wheat = assay: Field efficacy on wheat diseases; assay type: in vivo; settings: 40 g a.i./Mu
Procedure: (§2) The field prevention and control efficacy of the fungicidal composition preparations of embodiments 1-8 on wheat diseases was experimented. The experimental field was arranged in Jiangsu Yancheng Xinyang Farm. The wheat variety was Huaimai 33. At the initial stage of wheat blooming, a Nongjiale 16L knapsack electric sprayer was adopted to carry out application for the first time, application was carried out for the second time after five days, water consumption was 50 kg/Mu, the area of each plot was 50 square meters, each treatment was repeated for three times, and the fungicidal composition was not applied on the blank control. Meanwhile, 80 g of carbendazim wettable powder which was 50 percent was used as a control agent for treatment per mu. According to a corresponding method specified by the industrial standard of Guidelines for the Field Efficacy Trials of Fungicides issued by the Ministry of Agriculture, the occurrences of powdery mildew, rust, sheath blight and leaf blight of wheat were investigated at the stage of milky ripeness, disease indexes and prevention and control effects were calculated, and the result is shown in table 7.

powdery mildew of wheat = assay: Field efficacy on wheat diseases; assay type: in vivo; settings: 40 g a.i./Mu
Procedure: as §2

sheath blight of wheat = assay: Field efficacy on wheat diseases; assay type: in vivo; settings: 40 g a.i./Mu
Procedure: as §2

rust of wheat = settings: in vivo
[4] = Fusarium asiaticum, read-out: Growth Inhibition Rate

Compound: CC(C)C1CCC(Cc2ccc(Cl)cc2)C1(O)Cn1cncn1 (stereo not shown) [Ipconazole]
- EC50 (Fusarium graminearum; Fusarium graminearum): 0.89 µg/mL (≈ 2.67 µM)
- inhibition at 0.0125 µg/mL (Fusarium graminearum; Fusarium graminearum, read-out: Growth Inhibition Rate, sensitive strains, 0.0125 μg/mL): 28.9%
- inhibition at 0.025 µg/mL (Fusarium graminearum; Fusarium graminearum, read-out: Growth Inhibition Rate, sensitive strains, 0.025 μg/mL): 38.3%
- inhibition at 0.05 µg/mL (Fusarium graminearum; Fusarium graminearum, read-out: Growth Inhibition Rate, sensitive strains, 0.05 μg/mL): 40.8%
- inhibition at 0.1 µg/mL (Fusarium graminearum; Fusarium graminearum, read-out: Growth Inhibition Rate, sensitive strains, 0.1 μg/mL): > 50%
- inhibition at 0.2 µg/mL (Fusarium graminearum; Fusarium graminearum, read-out: Growth Inhibition Rate, sensitive strains, 0.2 μg/mL): 77.1%
- Average Fungal Colony Diameter (Fusarium graminearum; sensitive strains, 0.0125 μg/mL): 53.5 mm
- Average Fungal Colony Diameter (Fusarium graminearum; sensitive strains, 0.025 μg/mL): 46.4 mm
- Average Fungal Colony Diameter (Fusarium graminearum; sensitive strains, 0.05 μg/mL): 44.5 mm
- Average Fungal Colony Diameter (Fusarium graminearum; sensitive strains, 0.1 μg/mL): 31.8 mm
- Average Fungal Colony Diameter (Fusarium graminearum; sensitive strains, 0.2 μg/mL): 17.2 mm
- inhibition at 0.0125 µg/mL (Fusarium asiaticum; [4]): 29.5%
- inhibition at 0.025 µg/mL (Fusarium asiaticum; [4]): 38.6%
- inhibition at 0.05 µg/mL (Fusarium asiaticum; [4]): 41.7%
- inhibition at 0.1 µg/mL (Fusarium asiaticum; [4]): > 50%
- inhibition at 0.2 µg/mL (Fusarium asiaticum; [4]): 76.6%
- DON Biosynthesis Inhibition Rate [1]: 0.36% and 0.31%
- Toxin Production Capability [1]: 87.68 μgDON/g by dry weight of hyphae and 52.16 μgDON/g by dry weight of hyphae
- inhibitory effects on the toxin biosynthesis capability of the fusaria [1]: does not have significant inhibitory effects
- Disease Index Prevention Effect, Actual Prevention Effect (wheat scab; ipconazole 4 g a.i./Mu): 42.65%
- Disease Index Prevention Effect, Actual Prevention Effect (wheat scab; ipconazole 6 g a.i./Mu): 53.45%
- Disease Index Prevention Effect, Actual Prevention Effect (wheat scab; ipconazole 8 g a.i./Mu): 67.58%
- Disease Index Prevention Effect, Actual Prevention Effect (wheat scab; ipconazole 10 g a.i./Mu): 72.41%
- Disease Index Prevention Effect, Actual Prevention Effect (wheat scab; ipconazole 16 g a.i./Mu): 80.33%
- DON Contamination Reduction Rate (wheat scab fungi; ipconazole 4 g a.i./Mu): 49.11%
- Grain Toxin Content (wheat scab fungi; ipconazole 4 g a.i./Mu): 5.41 μg of toxin/g of kernels
- DON Contamination Reduction Rate (wheat scab fungi; ipconazole 6 g a.i./Mu): 59.08%
- Grain Toxin Content (wheat scab fungi; ipconazole 6 g a.i./Mu): 4.35 μg of toxin/g of kernels
- DON Contamination Reduction Rate (wheat scab fungi; ipconazole 8 g a.i./Mu): 61.24%
- Grain Toxin Content (wheat scab fungi; ipconazole 8 g a.i./Mu): 4.12 μg of toxin/g of kernels
- DON Contamination Reduction Rate (wheat scab fungi; ipconazole 10 g a.i./Mu): 63.78%
- Grain Toxin Content (wheat scab fungi; ipconazole 10 g a.i./Mu): 3.85 μg of toxin/g of kernels
- DON Contamination Reduction Rate (wheat scab fungi; ipconazole 16 g a.i./Mu): 71.50%
- Grain Toxin Content (wheat scab fungi; ipconazole 16 g a.i./Mu): 3.03 μg of toxin/g of kernels
- Disease Index Prevention Effect, Fusarium head blight ([2]; ipconazole 5 g a.i./Mu): 43.84%
- Disease Index Prevention Effect, Fusarium head blight ([2]; ipconazole 10 g a.i./Mu): 62.41%
- Disease Index Prevention Effect, Leaf Blight (barley leaf blight; ipconazole 5 g a.i./Mu): 64.29%
- Disease Index Prevention Effect, Leaf Blight (barley leaf blight; ipconazole 10 g a.i./Mu): 75.34%
- Disease Index Prevention Effect, Powdery Mildew (barley powdery mildew; ipconazole 5 g a.i./Mu): 76.24%
- Disease Index Prevention Effect, Powdery Mildew (barley powdery mildew; ipconazole 10 g a.i./Mu): 85.64%
- Disease Index Prevention Effect, Rust (barley rust): 74.25% and 82.65%
- Grain Toxin Content ([3]; ipconazole 5 g a.i./Mu): 3.54 mg of DON/Kg of kernel
- Toxin Reduction Percentage ([3]; ipconazole 5 g a.i./Mu): 58.50%
- Grain Toxin Content ([3]; ipconazole 10 g a.i./Mu): 2.57 mg of DON/Kg of kernel
- Toxin Reduction Percentage ([3]; ipconazole 10 g a.i./Mu): 69.87%

Compound: OCC1=C[C@H](N[C@H]2C[C@H](CO)[C@@H](O[C@@H]3O[C@H](CO)[C@@H](O)[C@H](O)[C@H]3O)[C@H](O)[C@H]2O)[C@H](O)[C@@H](O)[C@@H]1O [Jinggangmycin]
- inhibition at 50 µg/mL (Fusarium graminearum; Fusarium graminearum, read-out: Growth Inhibition Rate, sensitive strains, 50 μg/mL): 6.5 to 7.8%
- synergistic effect for ipconazole in inhibiting hyphal growth in vitro (Fusarium graminearum; jinggangmycin 0.1-50 μg/mL with ipconazole 0.05 or 0.1 μg/mL): does not have a synergistic effect
- Average Fungal Colony Diameter (Fusarium graminearum; sensitive strains, 0.1 μg/mL): 76.3 mm
- Average Fungal Colony Diameter (Fusarium graminearum; sensitive strains, 1 μg/mL): 76.2 mm
- Average Fungal Colony Diameter (Fusarium graminearum; sensitive strains, 10 μg/mL): 75.4 mm
- Average Fungal Colony Diameter (Fusarium graminearum; sensitive strains, 50 μg/mL): 70.3 mm
- Growth Inhibition Rate (Fusarium graminearum; sensitive strains, 50 μg/mL): 6.52%
- Average Fungal Colony Diameter (Fusarium asiaticum): 75.6 mm and 69.4 mm and 76.3 mm
- inhibitory activity on the growth in vitro (Fusarium asiaticum): almost does not have inhibitory activity
- synergistic effect for ipconazole in inhibiting hyphal growth in vitro (Fusarium asiaticum): does not have a synergistic effect
- inhibition at 50 µg/mL (Fusarium asiaticum; [4]): 6.5 to 7.8%
- inhibition at 1 µg/mL ([1]; 168 h): 28.6%
- inhibition at 10 µg/mL ([1]; 168 h): 35.5%
- inhibition at 100 µg/mL ([1]; 168 h): 45.2%
- inhibition at 1000 µg/mL ([1]; 168 h): 65.5%
- inhibition at 10000 µg/mL ([1]; 168 h): 75.9%
- inhibition at 1 µg/mL ([1]; 336 h): 1.7%
- inhibition at 10 µg/mL ([1]; 336 h): 7.87%
- inhibition at 100 µg/mL ([1]; 336 h): 29.9%
- inhibition at 1000 µg/mL ([1]; 336 h): 57%
- inhibition at 10000 µg/mL ([1]; 336 h): 75.4%
- Rate of Inhibition on Relative Expression Level of Tri5 Gene (Tri5 gene): 66% and 84% and 87% and 90% and 59%
- Disease Index Prevention Effect, Actual Prevention Effect (wheat scab; 2 g a.i./Mu): 0%
- Disease Index Prevention Effect, Actual Prevention Effect (wheat scab; jinggangmycin 4 g a.i./Mu): 8.65%
- Disease Index Prevention Effect, Actual Prevention Effect (wheat scab; jinggangmycin 8 g a.i./Mu): 10.24%
- Disease Index Prevention Effect, Actual Prevention Effect (wheat scab; jinggangmycin 10 g a.i./Mu): 14.31%
- Disease Index Prevention Effect, Actual Prevention Effect (wheat scab; jinggangmycin 12 g a.i./Mu): 16.54%
- Disease Index Prevention Effect, Actual Prevention Effect (wheat scab; jinggangmycin 16 g a.i./Mu): 18.65%
- DON Contamination Reduction Rate (wheat scab fungi; 2 g a.i./Mu): 16.18%
- Grain Toxin Content (wheat scab fungi; 2 g a.i./Mu): 8.91 μg of toxin/g of kernels
- DON Contamination Reduction Rate (wheat scab fungi; jinggangmycin 4 g a.i./Mu): 19.00%
- Grain Toxin Content (wheat scab fungi; jinggangmycin 4 g a.i./Mu): 8.61 μg of toxin/g of kernels
- DON Contamination Reduction Rate (wheat scab fungi; jinggangmycin 8 g a.i./Mu): 37.72%
- Grain Toxin Content (wheat scab fungi; jinggangmycin 8 g a.i./Mu): 6.62 μg of toxin/g of kernels
- DON Contamination Reduction Rate (wheat scab fungi; jinggangmycin 10 g a.i./Mu): 41.58%
- Grain Toxin Content (wheat scab fungi; jinggangmycin 10 g a.i./Mu): 6.21 μg of toxin/g of kernels
- DON Contamination Reduction Rate (wheat scab fungi; jinggangmycin 12 g a.i./Mu): 50.99%
- Grain Toxin Content (wheat scab fungi; jinggangmycin 12 g a.i./Mu): 5.21 μg of toxin/g of kernels
- DON Contamination Reduction Rate (wheat scab fungi; jinggangmycin 16 g a.i./Mu): 54.37%
- Grain Toxin Content (wheat scab fungi; jinggangmycin 16 g a.i./Mu): 4.85 μg of toxin/g of kernels
- Disease Index Prevention Effect, Fusarium head blight ([2]; jinggangmycin 5 g a.i./Mu): 4.54%
- Disease Index Prevention Effect, Fusarium head blight ([2]; jinggangmycin 10 g a.i./Mu): 12.58%
- Disease Index Prevention Effect, Leaf Blight (barley leaf blight; jinggangmycin 5 g a.i./Mu): 0%
- Disease Index Prevention Effect, Leaf Blight (barley leaf blight; jinggangmycin 10 g a.i./Mu): 0%
- Disease Index Prevention Effect, Powdery Mildew (barley powdery mildew; jinggangmycin 5 g a.i./Mu): 0%
- Disease Index Prevention Effect, Powdery Mildew (barley powdery mildew; jinggangmycin 10 g a.i./Mu): 0%
- Disease Index Prevention Effect, Rust (barley rust): 0%
- Grain Toxin Content ([3]; jinggangmycin 5 g a.i./Mu): 5.28 mg of DON/Kg of kernel
- Toxin Reduction Percentage ([3]; jinggangmycin 5 g a.i./Mu): 38.10%
- Grain Toxin Content ([3]; jinggangmycin 10 g a.i./Mu): 4.62 mg of DON/Kg of kernel
- Toxin Reduction Percentage ([3]; jinggangmycin 10 g a.i./Mu): 45.84%

Compound: COC(=O)Nc1nc2ccccc2[nH]1 [Carbendazim, carbendazim]
- EC50 (Fusarium graminearum; Fusarium graminearum): 0.45 µg/mL (≈ 2.35 µM)
- EC50 (Fusarium asiaticum; Fusarium asiaticum): 0.45 µg/mL (≈ 2.35 µM)
- Disease Index Prevention Effect, Actual Prevention Effect (wheat scab; 40 g a.i./Mu): 67.5%
- DON Contamination Reduction Rate (wheat scab fungi; 40 g a.i./Mu): 58.42%
- Grain Toxin Content (wheat scab fungi; 40 g a.i./Mu): 4.42 μg of toxin/g of kernels
- Disease Index Prevention Effect, Leaf Blight (leaf blight of wheat): 48.53%
- Disease Index Prevention Effect, Powdery Mildew (powdery mildew of wheat): 52.62%
- Disease Index Prevention Effect, Sheath Blight (sheath blight of wheat): 44.65%
- Disease Index Prevention Effect, Rust (rust of wheat): 61.24%

Compound: CCOC(=O)C(C#N)=C(N)c1ccccc1 [Phenamacril, phenamacril]
- EC50 (Fusarium graminearum): 0.165 µg/mL (≈ 0.763 µM)
